Experimental findings from patent publication US20240415819A1, “MACROCYCLIC COMPOUNDS AS PROTEASOME SUBUNIT BETA TYPE-5 INHIBITORS” (Lead Discovery Center GmbH, priority 2021, published 2024) are described below.

One experiment has as its system HT-29 cells. In words: CellTiter-Glo luminescent cell viability assay with HT-29 cells (72h incubation). It counts as cell-based, human. The note with it: Homo sapiens, HT-29, HT29 cells, read-out: CTG HT29. The procedure, abridged:
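Viability read as CellTiter-Glo luminescence after 72 h compound exposure, with 10 μM staurosporine and DMSO as control wells. Seeding 400 cells per well, compound added 24 h post-plating; IC50 from curve fitting.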

The target in experiment [1] is T1, β5 subunit of the human constitutive proteasome (CPS) (Homo sapiens, UniProt P28074).
T1 construct: purchased Boston Biochem E-360
The experiment is described as follows: β5 inhibition assay, human constitutive proteasome (Suc-LLVY-AMC). Format: biochemical. The note with it: IC50 class, Suc-LLVY-AMC substrate. As to the method: The enzymatic activity of the β5 subunit of the human constitutive proteasome (CPS) is analyzed. In another assay, which differs from the assay of the human constitutive proteasome only in using the human immunoproteasome (IPS) the enzymatic activity of the β5 subunit of the human immunoproteasome (IPS) is analyzed. […] Inhibition is indicated as IC50 [nM] (“-”=not measured).

Molecules are shown by their SMILES.

Take `Cc1ccc2cc1CNC(=O)[C@H](CCc1ccccc1)NC(=O)[C@@H](Nc1nc3ccccc3[nH]1)CC(=O)N1CCCC(CCO2)C1` (stereo partly drawn) [Compound 45, (9S,12S)-12-((1H-benzo[d]imidazol-2-yl)amino)-5^4-methyl-9-phenethyl-4-oxa-7,10-diaza-1(3,1)-piperidina-5(1,3)-benzenacyclotetradecaphane-8,11,14-trione]: the IC50 with HT-29 cells is 100 to 500 nM; in experiment [1] it was less than 100 nM.

For `Cc1ccc2cc1CNC(=O)[C@H](Cc1ccccc1)NC(=O)CCC(=O)N1CCCC(CCO2)C1` (stereo partly drawn) [Compound 79, (9S)-9-benzyl-5^4-methyl-4-oxa-7,10-diaza-1(3,1)-piperidina-5(1,3)-benzenacyclotetradecaphane-8,11,14-trione], the IC50 with HT-29 cells lay in the range of 1000 to 5000 nM; in experiment [1] it was 100 to 500 nM.

Regarding `Cc1ccc2cc1CNC(=O)[C@H](CCc1ccccc1)NC(=O)[C@@H](NS(C)(=O)=O)CC(=O)N1CCCC(CCO2)C1` (stereo partly drawn) [Compound 37, N-((9S,12S)-5^4-methyl-8,11,14-trioxo-9-phenethyl-4-oxa-7,10-diaza-1(3,1)-piperidina-5(1,3)-benzenacyclotetradecaphane-12-yl)methanesulfonamide], the IC50 (with HT-29 cells; in experiment [1]) was less than 100 nM throughout.

Turning to `Cc1ccc2cc1CNC(=O)[C@H](CCc1ccccc1)NC(=O)[C@@H](NC(=O)c1ccncc1)CC(=O)N1CCCC(CCO2)C1` (stereo partly drawn) [Compound 42, N-((9S,12S)-5^4-methyl-8,11,14-trioxo-9-phenethyl-4-oxa-7,10-diaza-1(3,1)-piperidina-5(1,3)-benzenacyclotetradecaphane-12-yl)isonicotinamide], the IC50 (with HT-29 cells; in experiment [1]) was less than 100 nM throughout.

On to `Cc1ccc2cc1CNC(=O)[C@H](CCc1ccccc1)NC(=O)[C@@H](NC(=O)CCc1cccc(F)c1)CC(=O)N1CCCC(CCO2)C1` (stereo partly drawn) [Compound 25, 3-(3-fluorophenyl)-N-((9S,12S)-5^4-methyl-8,11,14-trioxo-9-phenethyl-4-oxa-7,10-diaza-1(3,1)-piperidina-5(1,3)-benzenacyclotetradecaphane-12-yl)propanamide], for which the IC50 (in the experiment with HT-29 cells; in experiment [1]) was less than 100 nM each time.

Take `Cc1ccc2cc1CNC(=O)[C@H](CCc1ccccc1)NC(=O)[C@@H](Nc1ccccn1)CC(=O)N1CCCC(CCO2)C1` (stereo partly drawn) [Compound 36, (9S,12S)-5^4-methyl-9-phenethyl-12-(pyridin-2-ylamino)-4-oxa-7,10-diaza-1(3,1)-piperidina-5(1,3)-benzenacyclotetradecaphane-8,11,14-trione]: the IC50 was 100 to 500 nM in the experiment with HT-29 cells and less than 100 nM in experiment [1].

Take `Cc1ccc2cc1CNC(=O)[C@H](CCc1ccccc1)NC(=O)[C@@H](NC(=O)c1ccccc1)CC(=O)N1CCCC(CCO2)C1` (stereo partly drawn) [Compound 26, N-((9S,12S)-5^4-methyl-8,11,14-trioxo-9-phenethyl-4-oxa-7,10-diaza-1(3,1)-piperidina-5(1,3)-benzenacyclotetradecaphane-12-yl)benzamide]: the IC50 (in the experiment with HT-29 cells; in experiment [1]) was less than 100 nM in each case.

Regarding `Cc1ccc2cc1CNC(=O)[C@H](CCc1ccccc1)NC(=O)[C@@H](N1C(=O)CCC1=O)CC(=O)N1CCCC(CCO2)C1` (stereo partly drawn) [Compound 43, (9S,12S)-12-(2,5-dioxopyrrolidin-1-yl)-5^4-methyl-9-phenethyl-4-oxa-7,10-diaza-1(3,1)-piperidina-5(1,3)-benzenacyclotetradecaphane-8,11,14-trione], the IC50 (in the experiment on HT-29 cells; in experiment [1]) was less than 100 nM each time.

As to `Cc1ccc2cc1CNC(=O)[C@H](CCc1ccccc1)NC(=O)CCCCC(=O)N1CCCC(CCO2)C1` (stereo partly drawn) [Compound 16, (9S)-5^4-methyl-9-phenethyl-4-oxa-7,10-diaza-1(3,1)-piperidina-5(1,3)-benzenacyclohexadecaphane-8,11,16-trione], the IC50 in the experiment with HT-29 cells was 100 to 500 nM; in experiment [1] it was less than 100 nM.
